Experimental data reported in patent US20260297121A1, “MITHRAMYCIN (MTM) 2’ OXIMES” (University of Kentucky Research Foundation, priority 2023, published 2026).
Like-named read-outs stand apart in the source and are kept apart here.

Legend:
[1] = system: ES3; assay: Cytotoxicity, resazurin fluorescence, ES3; assay type: cell-based; settings: Table 6; 72 hr; EWS cells
[2] = system: Non EWS cells; assay: Cytotoxicity, average over non-Ewing cell panel; assay type: cell-based; settings: read-out: GI50 Average, Non EWS cells
Procedure: (§1) Exemplary compounds of the presently-disclosed subject matter were assessed for cytotoxicity (Table 5) in Ewing sarcoma (TC32) and non-Ewing (PC3 prostate cancer). […] Cells (1000-5000/well) were seeded in 96-well plates and allowed to attach and grow for 24 hr prior to adding compounds in half-log increments from 0.3 nM-10 μM. Cell viability was assessed after 72 hr continuous incubation with compounds using resazurin fluorescence. GI50 values were estimated using GraphPad Prism.

[3] = system: A549; assay: Cytotoxicity, resazurin fluorescence, A549; assay type: cell-based; settings: read-out: GI50 A549
[4] = system: PANC1; assay: Cytotoxicity, resazurin fluorescence, PANC1; assay type: cell-based; settings: read-out: GI50 PANC1
[5] = system: BL1395; assay: Cytotoxicity, resazurin fluorescence, BL1395; assay type: cell-based; settings: read-out: GI50 BL1395
[6] = system: SK.ES1; assay: Cytotoxicity, resazurin fluorescence, SK.ES1; assay type: cell-based; settings: Table 6, 72 hr, EWS cells
[7] = system: RH41; assay: Cytotoxicity, 72 hr resazurin assay, RH41 alveolar rhabdomyosarcoma; assay type: cell-based
Description: (§2) A fibroblast cell line (HS68 (FIG. 2E)) was used as a non-tumor control. The area under the concentration-efficacy curve (AUC; possible range of 0-20000) was used to estimate an alternate metric to GI50 for cases of shallow efficacy (e.g., the limited effect in HS68 cells).

[8] = system: HS68; assay: Cytotoxicity, 72 hr resazurin assay, HS68 fibroblast; assay type: cell-based
Description: as §2

[9] = system: ES4; assay: Cytotoxicity, resazurin fluorescence, ES4; assay type: cell-based; settings: Table 6; 72 hr; EWS cells
[10] = system: A673; assay: Cytotoxicity, resazurin fluorescence, A673; assay type: cell-based; settings: Table 6, 72 hr, EWS cells
[11] = system: LNCap; assay: Cytotoxicity, resazurin fluorescence, LNCap; assay type: cell-based; settings: read-out: GI50 LNCap
[12] = system: RH30; assay: Cytotoxicity, 72 hr resazurin assay, RH30 alveolar rhabdomyosarcoma; assay type: cell-based
Description: as §2

[13] = system: TC32 cells; assay: Potency IC50 in TC32 cells and selectivity; assay type: cell-based; settings: Homo sapiens, TC-32, Table 2, read-out: IC50 TC32
[14] = system: RDES; assay: Cytotoxicity, resazurin fluorescence, RDES; assay type: cell-based; settings: Table 6, 72 hr, EWS cells
[15] = system: TC32; assay: Cytotoxicity, resazurin fluorescence, TC32; assay type: cell-based
Procedure: as §1

[16] = system: 5838; assay: Cytotoxicity, resazurin fluorescence, 5838; assay type: cell-based; settings: Table 6; 72 hr; express EWS-ERG
[17] = system: PC3; assay: IC50 in PC3 cells; assay type: cell-based; settings: Homo sapiens, PC-3, read-out: IC50 PC2, Table 2; head prints PC2, text PC3
[18] = system: HepG2; assay: Cytotoxicity, resazurin fluorescence, HepG2; assay type: cell-based; settings: read-out: GI50 HepG2
[19] = system: EWS cells; assay: Cytotoxicity, average over Ewing (EWS) cell panel; assay type: cell-based; settings: Table 6; 72 hr; average of EWS cells
Procedure: as §1

[20] = system: DU145; assay: Cytotoxicity, resazurin fluorescence, DU145; assay type: cell-based; settings: read-out: GI50 DU145
[21] = system: ES7; assay: Cytotoxicity, resazurin fluorescence, ES7; assay type: cell-based; settings: Table 6, 72 hr, EWS cells
[22] = system: ES8; assay: Cytotoxicity, resazurin fluorescence, ES8; assay type: cell-based; settings: Table 6, 72 hr, EWS cells
[23] = system: Hela; assay: Cytotoxicity, resazurin fluorescence, Hela; assay type: cell-based; settings: read-out: GI50 Hela
[24] = system: TC71; assay: Cytotoxicity, resazurin fluorescence, TC71; assay type: cell-based; settings: Table 6, 72 hr, EWS cells
[25] = system: H460; assay: Cytotoxicity, resazurin fluorescence, H460; assay type: cell-based; settings: read-out: GI50 H460
[26] = system: JR1; assay: Cytotoxicity, 72 hr resazurin assay, JR1 embryonal rhabdomyosarcoma; assay type: cell-based
Description: as §2

[27] = system: rhabdomyosarcoma cells; assay: Cytotoxicity, 72 hr resazurin assay, four rhabdomyosarcoma cell lines; assay type: cell-based; settings: JR1, RD, RH30, RH41, read-out: GI50 range in the four cell lines tested
Description: as §2

[28] = log P; assay type: physicochemical; settings: Table 2
[29] = system: RD; assay: Cytotoxicity, 72 hr resazurin assay, RD embryonal rhabdomyosarcoma; assay type: cell-based
Description: as §2

[30] = system: PC3; assay: Cytotoxicity, resazurin fluorescence, PC3; assay type: cell-based
Procedure: as §1

[31] = system: EWS-FLI1; settings: screen of more than 50,000 natural products and synthetic compounds; cited from earlier work
[32] = cited from earlier work
[33] = area under concentration-efficacy curve, possible range 0-20000

`COC(C(=NOCCNC(=O)c1[nH]c2ccc(Cl)cc2c1-c1c(C)noc1C)C(O)C(C)O)C1Cc2cc3cc(OC4CC(OC5CC(O)C(O)C(C)O5)C(O)C(C)O4)c(C)c(O)c3c(O)c2C(=O)C1OC1CC(OC2CC(OC3CC(C)(O)C(O)C(C)O3)C(O)C(C)O2)C(O)C(C)O1` (stereo not drawn) [YL-C110] gave a GI50 [1] of 18.8 nM, a GI50 ([2]; 72 h) of 96.9 nM and a GI50 ([3]; Homo sapiens, A549, 72 h) of 46.7 nM. The GI50 ([4]; Homo sapiens, PANC-1, 72 h) was 87.5 nM, the GI50 ([5]; Lymphocyte, 72 h) was 49.4 nM and the GI50 ([6]; Homo sapiens, SK-ES1) was 18.8 nM. For the same molecule, the GI50 ([7]; Homo sapiens, Rh41, alveolar) was 24.7 nM, the “AUC RH41” value [7, 33] was 9477 and the GI50 ([8]; Homo sapiens, Hs68, fibroblast, non-tumor control) was 33.6 nM. For the same molecule, the “AUC HS68” value [8, 33] was 16245, the GI50 [9] was 10.1 nM and the GI50 ([10]; Homo sapiens, A673) was 33.5 nM. For the same molecule, the GI50 ([11]; Homo sapiens, LNCaP, 72 h) was 44.3 nM, the GI50 ([12]; Rh30, alveolar) was 21 nM and the “AUC RH30” value [12, 33] was 7413. It also gave an IC50 [13] of 2.18 nM, a GI50 ([14]; RD-ES) of 13.3 nM and a GI50 ([15]; Homo sapiens, TC-32, 72 h, read-out: GI50 TC32, Table 5) of 14 nM. It also gave a GI50 ([15]; Homo sapiens, TC-32, 72 h, read-out: GI50 TC32, Table 6, EWS cells) of 14.3 nM, a GI50 [16] of 26.6 nM and an IC50 [17] of 7.1 nM. The GI50 ([18]; Homo sapiens, HepG2, 72 h) was 466 nM, the GI50 [19] was 17.6 nM and the GI50 ([20]; Homo sapiens, DU-145, 72 h) was 16.2 nM. For the same molecule, the GI50 ([21]; Homo sapiens, ES7) was 13.6 nM, the GI50 ([22]; Homo sapiens, ES8) was 16.6 nM and the GI50 ([23]; Homo sapiens, HeLa, 72 h) was 102 nM. For the same molecule, the GI50 ([24]; Homo sapiens, TC-71) was 10.7 nM, the GI50 ([25]; Homo sapiens, NCI-H460, 72 h) was 33.2 nM and the “AUC JR1” value [26, 33] was 8535. The GI50 ([26]; embryonal) was 14.9 nM, the GI50 [27] was 15 to 25 nM and the logP [28] was 2.56. For the same molecule, the GI50 ([29]; Homo sapiens, RD, embryonal) was 22.4 nM, the “AUC RD” value [29, 33] was 8367 and the GI50 ([30]; Homo sapiens, PC-3, 72 h, read-out: GI50 PC3, Table 5) was 27 nM. It also gave a GI50 ([30]; Homo sapiens, PC-3, 72 h, read-out: GI50 PC3, Table 6, non EWS cells) of 26.8 nM.

Work on mithramycin A [MTM, reference compound] yielded a GI50 [1] of 12.8 nM, a GI50 ([2]; Table 6, 72 hr, average of non EWS cells) of 28.9 nM and a GI50 ([3]; Table 6, 72 hr, non EWS cells) of 54 nM. For the same molecule, the GI50 ([4]; Table 6, 72 hr, non EWS cells) was 22.3 nM, the GI50 ([5]; Table 6, 72 hr, lymphocyte origin) was 9.9 nM and the GI50 [6] was 10.2 nM. The GI50 [9] was 7.3 nM, the GI50 [10] was 9.1 nM and the GI50 ([11]; Table 6, 72 hr, non EWS cells) was 82.7 nM. For the same molecule, the GI50 [14] was 10.6 nM, the GI50 ([15]; Table 5, 72 hr, read-out: GI50 TC32) was 10 nM and the GI50 ([15]; Table 6, 72 hr, EWS cells, read-out: GI50 TC32) was 10.4 nM. It also gave a GI50 [16] of 11.2 nM, a GI50 ([18]; Table 6, 72 hr, hepatic origin) of 28.4 nM and a GI50 [19] of 10.9 nM. It also gave a GI50 ([20]; Table 6, 72 hr, non EWS cells) of 16.4 nM, a GI50 [21] of 10 nM and a GI50 [22] of 17.4 nM. For the same molecule, the “inhibition of EWS-FLI1” value [31] was “top inhibitor”, the GI50 ([23]; Table 6, 72 hr, non EWS cells) was 28.4 nM and the GI50 [24] was 10.3 nM. The clinical trial outcome ([32]; NCI clinical study, Ewing sarcoma patients) was “terminated early, due to toxicities”, the therapeutic index ([32]; clinical evaluation, 1960s and 70s) was “narrow therapeutic index” and the GI50 ([25]; Table 6, 72 hr, non EWS cells) was 6.8 nM. It also gave a GI50 ([30]; Table 5, 72 hr, read-out: GI50 PC3) of 11 nM and a GI50 ([30]; Table 6, 72 hr, non EWS cells, read-out: GI50 PC3) of 11.3 nM.
